This experiment relates to BDF1 mice, P388 leukemia ip, median survival T/C. In words: NCI In Vivo Anticancer Drug Screen. Data for tumor model P388 Leukemia (intraperitoneal) in B6D2F1 (BDF1) mice. To be noted: endpoint: median survival time, higher = longer survival. In a few lines:
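Mice carrying the transplantable tumour receive compound or vehicle. Survival is followed in each arm, and the treated measure is divided by the vehicle measure.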

[1] abbreviates: dose: 100.0 mg/kg/injection, schedule: Q01DX009 (ip), vehicle: saline with Tween-80.
[2] abbreviates: dose: 200.0 mg/kg/injection, schedule: Q01DX009 (ip), vehicle: saline with Tween-80.
Setting [3] is: dose: 400.0 mg/kg/injection, schedule: Q01DX009 (ip), vehicle: saline with Tween-80.
Where [4] appears, read: dose: 50.0 mg/kg/injection, schedule: Q01DX009 (ip), vehicle: water.
[5] abbreviates: dose: 100.0 mg/kg/injection, schedule: Q01DX009 (ip), vehicle: water.
The mark [6] stands for this setting: dose: 200.0 mg/kg/injection, schedule: Q01DX009 (ip), vehicle: water.
Where [7] appears, read: dose: 200.0 mg/kg/injection, schedule: Q04DX003 (ip), vehicle: water.
Setting [8] is: dose: 400.0 mg/kg/injection, schedule: Q04DX003 (ip), vehicle: water.
The mark [9] stands for this setting: dose: 50.0 mg/kg/injection, schedule: Q01DX009 (ip), vehicle: saline with Tween-80.
[10] abbreviates: dose: 50.0 mg/kg/injection, schedule: Q04DX003 (ip), vehicle: saline with Tween-80.
Where [11] appears, read: dose: 75.0 mg/kg/injection, schedule: Q04DX003 (ip), vehicle: saline with Tween-80.
[12] abbreviates: dose: 100.0 mg/kg/injection, schedule: Q04DX003 (ip), vehicle: saline with Tween-80.
Where [13] appears, read: dose: 200.0 mg/kg/injection, schedule: Q04DX003 (ip), vehicle: saline with Tween-80.
[14] abbreviates: dose: 100.0 mg/kg/injection, schedule: Q01DX001 (ip), vehicle: saline with Tween-80.
[15] abbreviates: dose: 400.0 mg/kg/injection, schedule: Q04DX003 (ip), vehicle: saline with Tween-80.
[16] abbreviates: dose: 25.0 mg/kg/injection, schedule: Q01DX009 (ip), vehicle: saline with Tween-80.
Where [17] appears, read: dose: 25.0 mg/kg/injection, schedule: Q01DX001 (ip), vehicle: saline with Tween-80.
Setting [18] is: dose: 50.0 mg/kg/injection, schedule: Q01DX001 (ip), vehicle: saline with Tween-80.
The mark [19] stands for this setting: dose: 50.0 mg/kg/injection, schedule: Q01DX009 (ip), vehicle: saline.
The mark [20] stands for this setting: dose: 100.0 mg/kg/injection, schedule: Q04DX003 (ip), vehicle: water.

Several values for one entry are separate records, joined by “and”; a condition that tells them apart may be missing. Equal entries are not always repeated. Inconclusive results and toxic doses are left out.

On to `COC(=O)C(I)C(OC)c1ccccc1` (centres undefined), for which the T/C by setting is: under setting [1], 100 % of control; under setting [2], 105 % of control; under setting [3], 110 % of control.
As to `O=C(Cc1ccccc1)Cc1ccccc1`, the T/C is, setting by setting: (dose: 25.0 mg/kg/injection, schedule: Q01DX009 (ip), vehicle: water) 99 % of control; under setting [4], 99 % of control; under setting [5], 90 % of control; under setting [6], 97 % of control; under setting [7], 97 % of control and 100 % of control; (dose: 300.0 mg/kg/injection, schedule: Q04DX003 (ip), vehicle: water) 89 % of control and 97 % of control. The T/C reads like this: (dose: 400.0 mg/kg/injection, schedule: Q01DX009 (ip), vehicle: water) 109 % of control; under setting [8], 93 % of control and 100 % of control; (dose: 500.0 mg/kg/injection, schedule: Q04DX003 (ip), vehicle: water) 108 % of control; (dose: 600.0 mg/kg/injection, schedule: Q04DX003 (ip), vehicle: water) 98 % of control.
Consider `N=C(N)c1ccc(-c2ccc(-c3ccc(C(=N)N)cc3)o2)cc1`, for which the T/C is, setting by setting: (dose: 3.13 mg/kg/injection, schedule: Q01DX009 (ip), vehicle: saline with Tween-80) 111 % of control; (dose: 6.25 mg/kg/injection, schedule: Q01DX009 (ip), vehicle: saline with Tween-80) 119 % of control.
Turning to `S=c1nn[nH]n1-c1ccccc1.[Zn+2]`, the T/C by setting is: under setting [9], 109 % of control; under setting [1], 118 % of control.
For `Cc1cccc2c(Nc3ccc(NS(C)(=O)=O)cc3)c3ccccc3nc12`, the T/C is, setting by setting: (dose: 0.88 mg/kg/injection, schedule: Q01DX009 (ip), vehicle: saline with Tween-80) 123 % of control; (dose: 2.93 mg/kg/injection, schedule: Q04DX003 (ip), vehicle: saline with Tween-80) 118 % of control; (dose: 3.0 mg/kg/injection, schedule: Q01DX009 (ip), vehicle: saline with Tween-80) 153 % of control; (dose: 5.0 mg/kg/injection, schedule: Q01DX009 (ip), vehicle: saline with Tween-80) 166 % of control; (dose: 10.0 mg/kg/injection, schedule: Q01DX009 (ip), vehicle: saline with Tween-80) 203 % of control; (dose: 20.0 mg/kg/injection, schedule: Q01DX009 (ip), vehicle: saline with Tween-80) 197 % of control. In addition, the T/C is, setting by setting: (dose: 20.0 mg/kg/injection, schedule: Q04DX003 (ip), vehicle: saline with Tween-80) 150 % of control; (dose: 22.0 mg/kg/injection, schedule: Q04DX003 (ip), vehicle: saline with Tween-80) 168 % of control; (dose: 30.0 mg/kg/injection, schedule: Q04DX003 (ip), vehicle: saline with Tween-80) 154 % of control; (dose: 33.0 mg/kg/injection, schedule: Q04DX003 (ip), vehicle: saline with Tween-80) 181 % of control; under setting [10], 245 % of control; under setting [11], 259 % of control. The T/C was 204 % of control under setting [12] and 272 % of control under setting [13].
Take `CCOC(=O)C(N)Cc1ccc(N(CCCl)CCCl)cc1` (centres undefined): the T/C (dose: 4.0 mg/kg/injection, schedule: Q04DX003 (ip), vehicle: saline with Tween-80) is 240 % of control and 245 % of control; the T/C (dose: 6.0 mg/kg/injection, schedule: Q04DX003 (ip), vehicle: saline with Tween-80) was 272 % of control; the T/C (dose: 9.0 mg/kg/injection, schedule: Q04DX003 (ip), vehicle: saline with Tween-80) is 272 % of control and 95 % of control.
As to `CCOC(=O)C(=O)NNc1cccc(Cl)n1`, the T/C was 94 % of control under setting [14]; 86 % of control (dose: 200.0 mg/kg/injection, schedule: Q01DX001 (ip), vehicle: saline with Tween-80); 112 % of control (dose: 400.0 mg/kg/injection, schedule: Q01DX001 (ip), vehicle: saline with Tween-80).
For `CC(=O)CC(=O)N1CCCCCC1`, the T/C runs as follows: under setting [1], 89 % of control; under setting [12], 109 % of control; under setting [2], 92 % of control; under setting [13], 90 % of control; under setting [3], 107 % of control; under setting [15], 104 % of control.
Turning to `Clc1nc(Cl)c(Cl)nc1Cl`, the T/C was 100 % of control under setting [16]; 97 % of control (dose: 25.0 mg/kg/injection, schedule: Q04DX003 (ip), vehicle: saline with Tween-80); 97 % of control under setting [9]; 113 % of control under setting [10]; 113 % of control under setting [1]; 108 % of control under setting [12]. The T/C is, setting by setting: under setting [2], 113 % of control; under setting [13], 97 % of control; under setting [3], 106 % of control; under setting [15], 106 % of control.
Consider `CC1=Nc2ccccc2N(C)/C1=C/C1=C(Cl)C(=O)c2ccccc2C1=O`, for which the T/C is, setting by setting: under setting [17], 103 % of control; under setting [18], 94 % of control; under setting [14], 108 % of control.
With `O=[N+]([O-])c1cc(C(F)(F)F)ccc1/C=C/c1ccccc1Br`, the T/C was 86 % of control under setting [11]; 90 % of control (dose: 150.0 mg/kg/injection, schedule: Q04DX003 (ip), vehicle: saline with Tween-80); 100 % of control (dose: 300.0 mg/kg/injection, schedule: Q04DX003 (ip), vehicle: saline with Tween-80).
For `COc1cc2cc[n+](C)cc2cc1OC`, the T/C is 94 % of control (dose: 6.25 mg/kg/injection, schedule: Q04DX003 (ip), vehicle: water); 94 % of control (dose: 12.5 mg/kg/injection, schedule: Q04DX003 (ip), vehicle: water); 100 % of control (dose: 25.0 mg/kg/injection, schedule: Q04DX003 (ip), vehicle: saline); 107 % of control (dose: 25.0 mg/kg/injection, schedule: Q04DX003 (ip), vehicle: water); 100 % of control under setting [19]; 86 % of control and 104 % of control (dose: 50.0 mg/kg/injection, schedule: Q04DX003 (ip), vehicle: saline). In addition, the T/C reads like this: (dose: 50.0 mg/kg/injection, schedule: Q04DX003 (ip), vehicle: water) 111 % of control; (dose: 100.0 mg/kg/injection, schedule: Q01DX009 (ip), vehicle: saline) 100 % of control; (dose: 100.0 mg/kg/injection, schedule: Q04DX003 (ip), vehicle: saline) 88 % of control and 90 % of control and 113 % of control; under setting [20], 111 % of control.
As to `COc1cccc(CCNC(=O)CCN2C(=O)c3ccccc3C2=O)c1`, the T/C under setting [1] was 95 % of control, the T/C under setting [2] is 109 % of control and the T/C under setting [3] was 100 % of control.
Regarding `CC(=O)OC1C=CCC23C(=O)C=CC(=O)C12C(=O)c1ccccc1C3=O` (centres undefined), the T/C was 102 % of control (dose: 1.56 mg/kg/injection, schedule: Q01DX009 (ip), vehicle: saline); 93 % of control (dose: 3.12 mg/kg/injection, schedule: Q01DX009 (ip), vehicle: saline); 95 % of control (dose: 6.25 mg/kg/injection, schedule: Q01DX009 (ip), vehicle: saline); 95 % of control (dose: 12.5 mg/kg/injection, schedule: Q01DX009 (ip), vehicle: saline); 107 % of control under setting [19].
As to `O=C(CC(Cl)(C(F)(F)F)C(F)(F)F)c1cccc([N+](=O)[O-])c1`, the T/C reads like this: (dose: 12.5 mg/kg/injection, schedule: Q01DX001 (ip), vehicle: saline with Tween-80) 113 % of control; under setting [17], 109 % of control; under setting [18], 109 % of control.
In the case of `CCOc1nc(SCC)ncc1C`, the T/C was 109 % of control under setting [4]; 101 % of control under setting [5]; 99 % of control under setting [20]; 108 % of control under setting [6]; 103 % of control under setting [7]; 107 % of control under setting [8].
Consider `CCCCS(=O)/C=C\C(=O)NCCC` (centres undefined), for which the T/C is, setting by setting: under setting [16], 100 % of control; under setting [9], 99 % of control; under setting [1], 100 % of control.

Values taken from PubChem BioAssay AID328 (DTP/NCI, 2004).
